Measurements: ChEMBL document CHEMBL5053532, “Bradykinin-Potentiating Peptide-Paclitaxel Conjugate Directed at Ectopically Expressed Angiotensin-Converting Enzyme in Triple-Negative Breast Cancer” (J Med Chem, 2021)
The source made the active and inactive calls. No cut-off for these calls is given here.

Experiments:
[1] = molecular target: Angiotensin-converting enzyme (Homo sapiens, UniProt P12821); experiment: Binding affinity to human recombinant ACE protein assessed as dissociation constant incubated for 15 mins by […] binding analysis
[2] = Stability of the compound in PBS buffer assessed as drug residual at 10 uM measured after 72 hrs by LC/MS analysis; type: physicochemical; conditions: read-out: Stability
[3] = Stability of the compound in rat plasma assessed as drug residual at 10 uM measured after 72 hrs by LC/MS analysis; type: ADME, cell-free; conditions: read-out: Stability
[4] = test system: HEK-293T; experiment: Antiproliferative activity against ACE-negative human HEK293T cells incubated for 48 hrs by MTT assay; type: functional, cell-based
[5] = test system: MDA-MB-231; experiment: Antiproliferative activity against ACE-positive human MDA-MB-231 cells incubated for 48 hrs by MTT assay; type: functional, cell-based; conditions: MDA-MB-231, 48 h
[6] = test system: MDA-MB-468; experiment: Antiproliferative activity against ACE-positive human MDA-MB-468 cells incubated for 48 hrs by MTT assay; type: functional, cell-based; conditions: MDA-MB-468, 48 h
[7] = test system: MDA-MB-231; experiment: Induction of apoptosis in ACE-positive human MDA-MB-231 cells assessed as increase in early apoptotic cells by measuring fragmented nuclei at 10 nM after 48 hrs by DAPI staining based fluorescence microscopy; type: functional, cell-based
[8] = test system: MDA-MB-231; experiment: Induction of apoptosis in ACE-positive human MDA-MB-231 cells assessed as increase in apoptotic cells at 10 nM measured after 48 hrs by Annexin V-FITC/PI staining based fluorescence microscopy; type: functional, cell-based
[9] = test system: MDA-MB-468; experiment: Induction of apoptosis in ACE-positive human MDA-MB-468 cells assessed as increase in apoptotic cells at 10 nM measured after 48 hrs by Annexin V-FITC/PI staining based fluorescence microscopy; type: functional, cell-based
[10] = Acute toxicity in BALB/c mouse assessed as rate of weight loss at 15 mg/kg, ip measured for 15 days; type: organism-based; conditions: in vivo, 360 h, time 15 day
[11] = Acute toxicity in BALB/c mouse assessed as rate of weight loss at 20 mg/kg, ip measured for 15 days; type: organism-based; conditions: in vivo, 360 h, time 15 day
[12] = Acute toxicity in BALB/c mouse assessed as survival at 15 mg/kg, ip measured for 15 days; type: organism-based; conditions: in vivo, 360 h, time 15 day
[13] = Acute toxicity in BALB/c mouse assessed as survival at 20 mg/kg, ip measured for 15 days; type: organism-based; conditions: in vivo, 360 h, time 15 day
[14] = Drug uptake in BALB/c mouse xenografted with human […] cells measured in tumor at 17.6 micromol/kg, ip measured after 1 hr; type: ADME, organism-based, Neoplasm; conditions: dose 17.6 µmol/kg, read-out: Drug uptake
[15] = Drug uptake in BALB/c mouse xenografted with human […] cells measured in tumor at 17.6 micromol/kg, ip measured after 4 hrs; type: ADME, organism-based, Neoplasm; conditions: dose 17.6 µmol/kg, read-out: Drug uptake
[16] = test system: MDA-MB-468; experiment: Antitumor activity in human […] cells xenografted in Balb/c mouse assessed as reduction in tumor growth at 2.4 micromol/kg, ip measured after 4 days; type: functional, organism-based; conditions: dose 2.4 µmol/kg, time 4.0 day
[17] = test system: MDA-MB-468; experiment: Antitumor activity in human […] cells xenografted in Balb/c mouse assessed as reduction in tumor growth at 2.4 micromol/kg, ip measured after 28 days relative to control; type: functional; set-up: scale not given: the % may be the effect or the level left; conditions: dose 2.4 µmol/kg, time 28 day
[18] = test system: MDA-MB-468; experiment: Antitumor activity in human […] cells xenografted in Balb/c mouse assessed as reduction in tumor growth at 9.6 micromol/kg, ip measured after 28 days relative to control; type: functional; set-up: scale not given: the % may be the effect or the level left; conditions: dose 9.6 µmol/kg, time 28 day
[19] = test system: MDA-MB-468; experiment: Antitumor activity in human […] cells xenografted in Balb/c mouse assessed as tumor weight at 2.4 micromol/kg, ip measured after 28 days (reference value: 0.43 g); type: functional; conditions: dose 2.4 µmol/kg, time 28 day
[20] = test system: Mus musculus; experiment: Toxicity in BALB/c mouse xenografted with human […] cells assessed as body weight loss at 2.4 micromol/kg, ip measured upto 24 days; type: organism-based; conditions: 576 h, dose 2.4 µmol/kg, time < 24 day
[21] = test system: Mus musculus; experiment: Toxicity in BALB/c mouse xenografted with human […] cells assessed as reduction in WBC count at 2.4 micromol/kg, ip measured after 28 days relative to control; type: organism-based; set-up: scale not given: the % may be the effect or the level left; conditions: 672 h, at 2.4 µmol/kg, time 28 day

Sequence of Angiotensin-converting enzyme (P12821 whole entry): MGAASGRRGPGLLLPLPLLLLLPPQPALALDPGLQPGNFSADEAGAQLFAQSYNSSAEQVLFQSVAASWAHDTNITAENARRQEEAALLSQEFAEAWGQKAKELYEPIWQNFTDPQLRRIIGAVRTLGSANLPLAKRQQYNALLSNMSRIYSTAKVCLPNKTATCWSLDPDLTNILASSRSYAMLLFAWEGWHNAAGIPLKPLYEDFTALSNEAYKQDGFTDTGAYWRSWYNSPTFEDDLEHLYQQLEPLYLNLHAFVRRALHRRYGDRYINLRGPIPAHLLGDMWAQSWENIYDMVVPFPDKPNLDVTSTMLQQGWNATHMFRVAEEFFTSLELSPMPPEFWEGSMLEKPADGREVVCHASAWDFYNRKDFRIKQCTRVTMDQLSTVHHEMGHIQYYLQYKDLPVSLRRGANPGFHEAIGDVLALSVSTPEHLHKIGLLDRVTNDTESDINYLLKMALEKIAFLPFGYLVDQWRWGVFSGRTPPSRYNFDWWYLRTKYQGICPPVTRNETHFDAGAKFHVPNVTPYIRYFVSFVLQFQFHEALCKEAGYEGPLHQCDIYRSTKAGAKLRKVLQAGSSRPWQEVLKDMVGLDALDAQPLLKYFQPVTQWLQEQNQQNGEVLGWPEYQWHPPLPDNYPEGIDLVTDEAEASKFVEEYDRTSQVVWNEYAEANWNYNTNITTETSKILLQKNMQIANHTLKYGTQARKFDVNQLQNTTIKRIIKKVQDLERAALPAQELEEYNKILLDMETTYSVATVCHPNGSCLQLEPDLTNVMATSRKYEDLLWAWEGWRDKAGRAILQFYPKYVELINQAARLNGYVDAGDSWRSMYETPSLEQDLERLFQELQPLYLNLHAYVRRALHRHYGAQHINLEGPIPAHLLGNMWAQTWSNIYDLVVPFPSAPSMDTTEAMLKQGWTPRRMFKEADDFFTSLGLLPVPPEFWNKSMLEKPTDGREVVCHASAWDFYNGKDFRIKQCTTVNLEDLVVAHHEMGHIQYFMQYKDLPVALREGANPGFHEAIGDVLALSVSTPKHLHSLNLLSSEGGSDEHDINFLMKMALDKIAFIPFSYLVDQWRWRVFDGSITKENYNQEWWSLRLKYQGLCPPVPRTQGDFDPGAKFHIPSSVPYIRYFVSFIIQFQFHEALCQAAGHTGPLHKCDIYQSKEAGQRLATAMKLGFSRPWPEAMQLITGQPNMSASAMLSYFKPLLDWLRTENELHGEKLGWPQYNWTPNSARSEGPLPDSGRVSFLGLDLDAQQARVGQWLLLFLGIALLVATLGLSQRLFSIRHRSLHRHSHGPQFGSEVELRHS

CC(=O)O[C@H]1C(=O)[C@@]2(C)[C@H]([C@H](OC(=O)c3ccccc3)[C@]3(O)C[C@H](OC(=O)[C@H](O)[C@@H](NC(=O)c4ccccc4)c4ccccc4)C(C)=C1C3(C)C)[C@]1(OC(C)=O)CO[C@@H]1C[C@@H]2O [PACLITAXEL]
Kd [1]: Not Active
remaining at 72 h, 10 µM [2]: 70.3%
remaining at 72 h, 10 µM [3]: 47.6%
IC50 [4]: 6.7 nM
IC50 [5]: 3.1 nM
IC50 [6]: 3 nM
Activity [7]: Active
Activity [8]: Active
Activity [9]: Active
Activity [10]: 4%
Activity [11]: 8.7%
Activity [12]: Non-Toxic
Activity [13]: Non-Toxic
concentration at 1 h [14]: 6470 ng/g
concentration at 4 h [15]: 2250 ng/g
Activity [16]: inactive
Activity [17]: 15%
Activity [18]: 30%
Activity [19]: 0.26 g
Activity [20]: Non-Toxic
Activity [21]: 6.2%
